Reference: US10064871B2, “Methods of treating skin disorders” (Biomimetix JV, LLC, priority 2014, dated 2018)

What was measured:
plaque-forming psoriasis = test: Topical treatment of plaque-forming psoriasis on the legs of one subject; assay type: in vivo, human
Protocol: The therapeutic efficacy of MnTnBuOE-2-PyP^5+ when topically delivered was evaluated in a person with large areas of moderately severe plaque-forming psoriasis on upper and lower portions of both legs, with each involved area being approximately 10-20 cm in diameter. MnTnBuOE-2-PyP^5+ was formulated in LIPODERM® topical compounding cream base (available from the Professional Compounding Centers of America (PCCA)). at 0.01% and 0.1% concentrations producing a light brown cream which was applied b.i.d. to lesions on one extremity.

[1] = system: psoriatic involvement of the scalp; test: Topical treatment of psoriatic involvement of the scalp of one subject; assay type: in vivo, human
Text: A second subject with psoriatic involvement of the scalp of moderate severity was topically treated with MnTnBuOE-2-PyP^5+0.1% in LIPODERM® cream base twice daily for 3 weeks.

[2] = 0.01% and 0.1% in LIPODERM cream base, topical b.i.d., within 5 days

In the case of “Manganese ortho tetrakis(N-n-butoxyethylpyridinium-2-yl)porphyrin [MnTnBuOE-2-PyP^5+]”, the “time to marked improvement” value (plaque-forming psoriasis; 0.01% and 0.1% in LIPODERM cream base, topical b.i.d.) is reported as ≤ 5 days, the “area of remaining mild psoriatic reaction” value (plaque-forming psoriasis; [2]) is reported as “decrease in the area of remaining mild psoriatic reaction” and the clinical irritation (plaque-forming psoriasis; [2]) is reported as “marked decrease in clinical irritation”. The inflammation of lesions (plaque-forming psoriasis; [2]) was “decreased inflammation”, the “efficacy of 0.01% compared with 0.1% cream” value (plaque-forming psoriasis; lesions treated with 0.01% and 0.1% in LIPODERM cream base) was “Equivalent efficacy” and the “clinical improvement of psoriatic lesions” value (plaque-forming psoriasis; person, moderately severe plaque psoriasis of legs, 0.01% and 0.1% in LIPODERM cream base, topical b.i.d.) was “Marked improvement”. The “return of the psoriatic reaction” value ([1]; 30 days after treatment stopped, 0.1% in LIPODERM cream base twice daily for 3 weeks) was “No return of the psoriatic reaction was observed” and the “psoriatic scalp reaction after treatment” value ([1]; person, moderate severity, 0.1% in LIPODERM cream base, topical twice daily for 3 weeks) was “Complete resolution”.
